The text below walks through data of US7049301B2, “Quercetin derivatives and their medical usages” (Academy of Military Medical Sciences Institute of …, priority 2001, dated 2006).

One may read the IC50 as the concentration that gives 50% inhibition.

The structures appear in SMILES notation. Read-outs that look alike come from different tables or passages of the source.

The subject of assay [1] is mice. Description: Forced swimming test. It counts as in vivo. The note with it: for Duration of immobility: abdominal administration, last 4 of 6 minutes; for immobility time: oral. As to the method:
(1) The test is carried out according to literature (Arch Int. Pharmacodn. Ther, 1977, 229(2): 327). 30 minutes after abdominal injection or 60 minutes after oral administration, the mice are put into an open glass box (19 cm high and 12 cm of diameter). Water inside the glass box is 8 cm in depth and 22˜23° C. in temperature. The mice are put into the water for 6 minutes and observed by Vidio movement analyzer, the accumulated immobility time of the mice during the last 4 minutes and their activity are analyzed identically as above.

The subject of assay [2] is PC-12 cells damaged by corticosterone. Description: Protection of PC-12 cells damaged by corticosterone (MTT). It counts as cell-based, rat. The settings on record: for Absorbance (A): 10^−4 mol/L corticosterone, 48 h, MTT, 570 nm; for Increase of A (%): vs damaged control. As to the method: 3.2. Protection Effect of Compound of Formula I on PC-12 Cells Damaged by Corticosterone.
PC-12 cells are diluted into a suspension (2×10^5 cells/ml) with DMEM culture solution containing 5% calf serum and 5% horse serum, and then are transplanted into 96-well plates pretreated with polylysine, and cultivated under conditions of 37° C. and 5% CO2 for 2˜3 days. Cells are to grow all over the wells bottom before test. The culture solution is then pipetted away and serum-free DMEM is added containing certain concentration of test medicine and 10^−4 mol/L corticosterone, 10 μl of 5 mg/ml MTT is added 48 hours later to each well, shaking up slightly and, 4 hours later, 100 μl of 10% SDS is added to each well, again shaking up slightly. The plates are then left in the incubator overnight at 37° C.(about 8˜12 hours). After all the dark-blue crystals are dissolved, shaking up slightly and absorbance (A) of each sample at 570 nm is read using microplate reader.

The target in assay [3] is T1, 5HT1A receptor (Rattus norvegicus, UniProt P19327).
T1 construct: 50 μl of 1:5 suspension of rat hippocampal membrane receptor; from tissue; host or cells: rat hippocampal membranes
T1 sequence (P19327 1-422): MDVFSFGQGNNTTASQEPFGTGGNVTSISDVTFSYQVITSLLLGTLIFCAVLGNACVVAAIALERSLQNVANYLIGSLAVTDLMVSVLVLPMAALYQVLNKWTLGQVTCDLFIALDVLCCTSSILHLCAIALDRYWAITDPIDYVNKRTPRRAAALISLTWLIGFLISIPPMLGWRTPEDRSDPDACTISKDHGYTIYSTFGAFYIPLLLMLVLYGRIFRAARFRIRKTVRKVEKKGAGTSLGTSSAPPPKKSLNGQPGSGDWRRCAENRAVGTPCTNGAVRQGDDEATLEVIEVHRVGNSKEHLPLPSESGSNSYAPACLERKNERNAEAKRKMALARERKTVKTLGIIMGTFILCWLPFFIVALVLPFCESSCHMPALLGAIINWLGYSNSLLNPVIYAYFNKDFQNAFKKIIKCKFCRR
Description: 5HT1A receptor test, competition with 3H-8-OH-DPAT on rat hippocampal membrane receptor. It counts as binding. As to the method:
20 μl of ^3H-8-OH-DPAT ([…]) and 20 μl of sample solutions of different concentrations are added into 50 μl of 1:5 suspension of rat hippocampal membrane receptor, followed by addition of buffer solution to make up to final volume of 200 μL. Then the above-mentioned suspension is shaken up and incubated in a water-bath at 25° C. for 30 minutes. After quick filtration by suction and washing the membrane receptors, radioactivity value is read by liquid scintillation counter. 20 μl of 5HT […] sulfate (1 mmol) solution is used instead to determine the non-specific conjugation. Buspirone, a partially activating agent of 5HT1A receptor, is used as the positive control. The competitive inhibition rate of the sample to ^3H-8-OH-DPAT is calculated according to the radioactivity value.

In assay [4] the test system is adenylate cyclase (AC). Description: Activation of adenylate cyclase (AC) in rat cerebral cortex synaptolemma, cAMP produced. It counts as biochemical. The settings on record: for Amount of cAMP produced: X ± SD; for Activation of AC (in words): rat cerebral cortex synaptolemma. On the procedure:
3.1 Effect on Activities of Adenylate Cyclase (AC) in Rat Cerebral Cortex:
Male Wistar rats weighed 200±20 g are sacrificed by decollation, and cerebral cortex is separated. Synaptolemma is extracted at 4° C. according to the method as described in literature (Rasenick M M et al, Pro. Natl. Acad. Sci. USA, 1980; 77:4628) and suspended in buffer solution, so that a protein concentration of 3˜5 mg/ml is reached. The synaptolemma has to be incubated in advance with the test medicine, as adenylate cyclase (AC) is located on it. The experiment is carried out as follows: portions of 100 μl reaction solution containing certain concentration of test medicine and 15 mmol/L HEPES, pH=7.5, 5 mmol/L MgCl2, 1 mmol/L EGTA, […], 60 mmol/L NaCl, 1 mmol/L aminophylline, 0.5 mg/ml phosphocreatine and 0.14 mg/ml phosphocreatine kinase are respectively dispensed into reaction tubes, followed by addition of 20 μg synaptolemma to each tube. Then, the tubes are immediately put into a water-bath at 30° C. to react for 10 minutes, which reaction is linear during the first 20 minutes. After that, all the reaction tubes are immediately transferred into boiling water and deposited for 3 minutes to terminate the reaction. The amount of cAMP thus produced is measured in an ice-bath environment with cAMP kit, the total reaction volume is 130 μL. The measure is carried out according to the instruction of the kit: various reagents are added and, after the reaction finishes, the tubes are centrifugated at 4000 rpm for 7 minutes. 120 μl supernatant is then pipetted into the measure cup, added afterwards with 1.5 ml anhydrous alcohol, after shaken up, 3.5 ml of scintillation solution is added. Then, the cups are sealed and shaken up, and are left overnight. The values of […] of all samples are determined then by Wallac 1409 liquid scintillation counter. The amount of cAMP produced can be calculated according to the standard curve and CPM. The results are statistically analyzed by ANOVA, and Dunnett's T test is made for inter-group comparison.

On to `CC1OC(OC[C@H]2O[C@@H](Oc3c(-c4ccc(O)c(O)c4)oc4cc(O)cc(O)c4c3=O)[C@H](O[C@@H]3OC[C@](O)(CO)[C@H]3O)[C@@H](O)[C@@H]2O)C(O)C(O)C1O` (stereo in doubt) [Compound of formula I, quercetin-3-O-β-D-apiofuranosyl-(1→2)-[α-D-rhamnopyranosyl-(1→6)]-β-D-glucopyranoside], for which the Duration of immobility in assay [1] (0.31 mg/kg) is 148.69 ± 30.81 s; in assay [1] (0.31 mg/kg, listed as compound of formula I), “shorten the immobility time”; in assay [1] (1.25 mg/kg) it was 149.94 ± 34.87 s; in assay [1] (5.00 mg/kg) it was 134.38 ± 40.99 s. Besides, the immobility time was 95.2 ± 47.4 s in assay [1] (3.75 mg/kg); 62.2 ± 45.9 s in assay [1] (7.5 mg/kg); “shorten the immobility time” in assay [1] (7.5 mg/kg, listed as compound of formula I); 53.6 ± 50.8 s in assay [1] (15 mg/kg); 111.5 ± 52.9 s in assay [1] (30 mg/kg). In addition, the “Protection effect on PC-12 cells damaged by corticosterone (in words)” value in assay [2] is “strong protection effect”. Further, the “Absorbance (A)” value is 0.74 ± 0.14 in assay [2] (4.04 μmol·L^−1); 0.84 ± 0.08 in assay [2] (14.38 μmol·L^−1); 0.86 ± 0.10 in assay [2] (40.43 μmol·L^−1); 0.77 ± 0.11 in assay [2] (134.77 μmol·L^−1); 0.61 ± 0.16 in assay [2] (404.31 μmol·L^−1). Besides, the “Increase of A (%)” value is listed as 208.3% in assay [2] (4.04 μmol·L^−1); 250.0% in assay [2] (14.38 μmol·L^−1); 258.3% in assay [2] (40.43 μmol·L^−1); 220.8% in assay [2] (134.77 μmol·L^−1); 154.2% in assay [2] (404.31 μmol·L^−1). Also, the half-maximal inhibitory concentration (IC50) in assay [3] was roughly 50 pM. Besides, the “Amount of cAMP produced” value is reported as 23.27 ± 4.95 pmol/mg protein/minute in assay [4] (13.5 μM (0.01 mg/ml)); 23.27±4.95 pmol/mg protein/minute in assay [4] (13.5 μM (0.01 mg/ml), listed as compound of formula I); 4.75 ± 6.33 pmol/mg protein/minute in assay [4] (40.5 μM); 43.42 pmol/mg protein/minute in assay [4] (135 μM); 68.34 pmol/mg protein/minute in assay [4] (405 μM). Also, in assay [4] (404 μM (0.3 mg/ml)), the “AC activation relative to same doses of imipramine and buspirone” value is reported as 2˜3 times. Besides, the “Activation effect on AC (cAMP produced)” value in assay [4] (404 μM (0.3 mg/ml)) is listed as 68.34±10.45 pmol/mg protein/minute.

`CCOc1cc(OCC)c2c(=O)c(OC3OC(COC4OC(C)C(O)C(O)C4O)C(O)C(O)C3OC3OCC(O)(CO)C3O)c(-c3ccc(OCC)c(OCC)c3)oc2c1` [5,7,3′,4′,-tetraethoxyl flavonol-3-O-β-D-apiofuranosyl-(1→2)-[α-D-rhamnopyranosyl-(1→6)]-β-D-glucopyranoside]: the 50% inhibitory concentration (IC50) in assay [3] (competitive inhibition of 3H-8-OH-DPAT, rat hippocampal membrane, 25° C., 30 minutes, read-out: IC50) was roughly 200 pM.

Take `O=C1CC2(CCCC2)CC(=O)N1CCCCN1CCN(c2ncccn2)CC1` [buspirone]: the “Amount of cAMP produced” value in assay [4] (25 μM) turned out to be 19.52 ± 5.46 pmol/mg protein/minute; in assay [4] (100 μM), 19.71 ± 5.57 pmol/mg protein/minute; in assay [4] (400 μM), 24.63 pmol/mg protein/minute; in assay [4] (1 mM), 33.00 pmol/mg protein/minute. The “Activation of AC (in words)” value in assay [4] is listed as “dose-dependently activate AC”.

Take `CN(C)CCCN1c2ccccc2CCc2ccccc21` [imipramine]: the “Amount of cAMP produced” value turned out to be 15.07 ± 4.91 pmol/mg protein/minute in assay [4] (25 μM), 18.53 ± 3.2 pmol/mg protein/minute in assay [4] (100 μM), 30.32 pmol/mg protein/minute in assay [4] (400 μM) and 79.79 pmol/mg protein/minute in assay [4] (1 mM). The “Activation of AC (in words)” value in assay [4] was “dose-dependently activate AC”.
